Publication PMC6272903, “Synthesis and Structure-Activity Relationship Analysis of 5-HT7 Receptor Antagonists: Piperazin-1-yl Substituted Unfused Heterobiaryls” (Molecules, 2016)
Values joined by “and” are separate entries in the source; they are usually repeats but may differ in a detail not shown here. Equal values may be shown once.

Biological target: T1, human 5-HT7b receptors (Homo sapiens, UniProt P34969)
T1 construct: expressed in transfected cells; host or cells: HEK293
Experiment: 5-HT7 competition radioligand binding assay ([3H]5-CT)
Conditions: HEK293 cells overexpressing human 5-HT7b receptors, at least two independent experiments in triplicate
Procedure: Novel scaffold endowed with 5-HT7R activity was identified by screening of the in-house compound library in a single compound concentration of 1 µM in a competition radioligand binding assay using [^3H]5-CT and HEK293 cells overexpressing the human 5-HT7b receptors.

T1 sequence (P34969 1-432): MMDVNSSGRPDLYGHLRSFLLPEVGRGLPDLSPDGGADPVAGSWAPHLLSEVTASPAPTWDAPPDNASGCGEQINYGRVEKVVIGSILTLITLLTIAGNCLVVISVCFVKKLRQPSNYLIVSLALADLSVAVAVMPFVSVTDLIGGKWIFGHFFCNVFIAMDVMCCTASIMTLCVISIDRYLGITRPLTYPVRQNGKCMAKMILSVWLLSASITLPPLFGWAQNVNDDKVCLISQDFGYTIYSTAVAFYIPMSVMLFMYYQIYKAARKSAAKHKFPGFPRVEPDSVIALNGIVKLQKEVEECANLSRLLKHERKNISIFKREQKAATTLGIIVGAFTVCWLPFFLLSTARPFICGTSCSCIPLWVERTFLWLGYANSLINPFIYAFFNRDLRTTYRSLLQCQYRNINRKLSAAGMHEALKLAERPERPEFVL

Compound | Ki ± S.D. 5-HT7 binding affinity
c1cc(-c2ccoc2)nc(N2CCCCC2)n1 [Compound 43, 4-(3-Furyl)-2-(piperidin-1-yl)pyrimidine] | no affinity

Same assay, conditions: HEK293 cells overexpressing human 5-HT7b receptors, at least two independent experiments in triplicate, read-out: Ki ± S.D. 5-HT7 binding affinity

Compound | Ki
Cc1cc(-c2ccco2)cc(N2CCN(C)CC2)n1 [Compound 55, 4-(2-Furyl)-2-methyl-6-(4-methylpiperazin-1-yl)pyridine] | 139 ± 22 nM
CCCCc1cc(-c2ccsc2)nc(N2CCN(C)CC2)n1 [Compound 31, 4-n-Butyl-2-(methylpiperazin-1-yl)-6-(3-thienyl)pyrimidine] | 15 ± 3 nM
CN1CCN(c2nc(-c3ccoc3)cc(-c3ccoc3)n2)CC1 [Compound 18, 4,6-Bis(3-furyl)-2-(4-methylpiperazin-1-yl)pyrimidine] | 22 ± 2 nM
CCC(C)c1cc(-c2ccoc2)nc(N2CCN(C)CC2)n1 (centres unmarked) [Compound 15, 4-sec-Butyl-6-(3-furyl)-2-(4-methylpiperazin-1-yl)pyrimidine] | 2.7 ± 0.5 nM
CCOC(=O)CCCCCN1CCN(c2nccc(-c3ccoc3)n2)CC1 [Compound 10] | 1.4 ± 0.3 nM
CCOC(=O)CCN1CCN(c2nccc(-c3ccoc3)n2)CC1 [Compound 9, Ethyl 3-{4-{[4-(3-furyl)pyrimidin-2-yl]piperazin-1-yl}}propanoate] | 8.9 ± 2.1 nM
c1cc(-c2ccoc2)nc(NCCCc2ncc[nH]2)n1 [Compound 46, 4-(3-Furyl)-N-[3-(1H-imidazol-2-yl)propyl]pyrimidin-2-amine] | 1280 ± 187 nM
c1cc(-c2ccoc2)nc(N2CC[N+]3(CCOCC3)CC2)n1 [Compound 47, 4-[4-(3-Furyl)pyrimidin-2-yl]piperazine-1-spiro-1-morpholinium iodide] | 299 ± 42 nM
CN1CCN(c2cc(-c3ccco3)ccn2)CC1 [Compound 52, 4-(2-Furyl)-2-(4-methylpiperazin-1-yl)pyridine] | 307 ± 42 nM
CN1CCN(c2cccc(-c3ccsc3)c2)CC1 [Compound 66, 1-Methyl-4-[3-(3-thienyl)phenyl]piperazine] | 342 ± 51 nM
4-(3-Furyl)-2,4-bis(4-methylpiperazin-1-yl)pyrimidine [Compound 20] | > 10000 nM
c1cc(-c2ccoc2)nc(NCCN2CCOCC2)n1 [Compound 45, 4-(3-Furyl)-N-[2-(morpholin-4-yl)ethyl]pyrimidin-2-amine] | 2460 ± 343 nM
CCCCCCc1cc(-c2coc(C)c2)nc(N2CCN(C)CC2)n1 [Compound 25, 4-n-Hexyl-6-(5-methyl-3-furyl)-2-(4-methylpiperazin-1-yl)pyrimidine] | 12 ± 2 nM
CN1CCN(c2cccc(-c3ccco3)c2)CC1 [Compound 63, 1-[3-(2-Furyl)phenyl]-4-methylpiperazine] | 914 ± 121 nM
Cc1cc(-c2ccoc2)cc(N2CCN(C)CC2)n1 [Compound 54, 4-(3-Furyl)-2-methyl-6-(4-methylpiperazin-1-yl)pyridine] | 8 ± 1 nM
OCCN1CCN(c2nccc(-c3ccoc3)n2)CC1 [Compound 8, 2-[4-(2-Hydroxyethyl)piperazin-1-yl]-4-(3-furyl)pyrimidine] | 8.5 ± 1.1 nM
CN1CCN(c2cccc(-c3ccsc3)n2)CC1 [Compound 58, 2-(4-Methylpiperazin-1-yl)-6-(3-thienyl)pyridine] | 79 ± 14 nM
CN1CCN(c2nccc(-c3cc4ccccc4o3)n2)CC1 [Compound 36, 4-(Benzofuran-2-yl)-2-(4-methylpiperazin-1-yl)pyrimidine] | 7460 ± 1230 nM
Cc1cc(-c2ccsc2)cc(N2CCN(C)CC2)c1 [Compound 67, 1-Methyl-4-[3-methyl-5-(3-thienyl)phenyl]piperazine] | 47 ± 6 nM

Compound | Ki
CN1CCN(c2nc(N3CCN(C)CC3)c3ccccc3n2)CC1 [Compound 49, 2,4-bis(4-Methylpiperazin-1-yl)quinazoline] | 7540 ± 1140 nM
c1ccc(CN2CCN(c3nccc(-c4ccoc4)n3)CC2)cc1 [Compound 5, 2-(4-Benzylpiperazin-1-yl)-4-(3-furyl)pyrimidine] | 25 ± 3 nM
CCCCCCc1cc(-c2ccoc2)nc(N2CCN(C)CC2)n1 [Compound 14, 4-(3-Furyl)-6-n-hexyl-2-(4-methylpiperazin-1-yl)pyrimidine] | 3.3 ± 0.5 nM
Cc1cc(-c2cccs2)cc(N2CCN(C)CC2)n1 [Compound 56, 2-Methyl-6-(4-methylpiperazin-1-yl)-4-(2-thienyl)pyridine] | 117 ± 12 nM
CCCCc1cc(-c2ccco2)nc(N2CCN(C)CC2)n1 [Compound 28, 4-n-Butyl-6-(2-furyl)-2-(4-methylpiperazin-1-yl)pyrimidine] | 450 ± 63 nM
CCCCc1cc(-c2ccoc2)cc(N2CCN(C)CC2)c1 [Compound 62, 1-[3-n-Butyl-5-(3-furyl)phenyl]-4-methylpiperazine] | 106 ± 9 nM
CCN1CCN(c2nccc(-c3ccoc3)n2)CC1 [Compound 3, 2-(4-Ethylpiperazin-1-yl)-4-(3-furyl)pyrimidine] | 10 ± 1 nM
CN1CCN(c2nccc(-c3cccnc3)n2)CC1 [Compound 39, 2-(4-Methylpiperazin-1-yl)-4-(pyridin-3-yl)pyrimidine] | 780 ± 94 nM
CN1CCN(c2nccc(-c3ccccc3O)n2)CC1 [Compound 33, 4-(2-Hydroxyphenyl)-2-(4-methylpiperazin-1-yl)pyrimidine] | > 10000 nM
CN1CCN(c2nccc(-n3ccnc3)n2)CC1 [Compound 41, (1H-Imidazol-1-yl)-2-(4-methylpiperazin-1-yl)pyrimidine] | 1980 ± 275 nM
CCCc1cnc(N2CCN(C)CC2)nc1-c1ccoc1 [Compound 21, 4-(3-Furyl)-2-(4-methylpiperazino)-5-propylpyrimidine] | 1330 ± 232 nM
Cc1ccc(-c2ccnc(N3CCN(C)CC3)n2)o1 [Compound 29, 4-(5-Methyl-2-furyl)-2-(4-methylpiperazin-1-yl)pyrimidine] | 4230 ± 680 nM
c1cc(-c2ccoc2)nc(N2CCNCC2)n1 [Compound 1, 4-(3-Furyl)-2-(piperazin-1-yl)pyrimidine] | 9 ± 2 nM
CCCCc1cc(-c2ccsc2)cc(N2CCN(C)CC2)c1 [Compound 68, 1-[3-n-Butyl-5-(3-thienyl)phenyl]-4-methylpiperazine] | 263 ± 19 nM
Cc1cc(-c2cccs2)cc(N2CCN(C)CC2)c1 [Compound 70, 1-Methyl-4-[3-methyl-5-(2-thienyl)phenyl]piperazine] | 297 ± 42 nM
Cc1cc(-c2ccoc2)nc(N2CCN(C)CC2)n1 [Compound 11, 4-(3-Furyl)-6-methyl-2-(4-methylpiperazin-1-yl)pyrimidine] | 3.9 ± 0.7 nM
CN1CCN(c2nccc(-c3cc4ccccc4s3)n2)CC1 [Compound 37, 4-(Benzothiophen-2-yl)-2-(4-methylpiperazin-1-yl)pyrimidine] | 5280 ± 820 nM
c1cc(-c2ccoc2)nc(N2CCCCC2)n1 [Compound 43, 4-(3-Furyl)-2-(piperidin-1-yl)pyrimidine] | > 10000 nM
CN1CCN(c2cccc(-c3ccoc3)c2)CC1 [Compound 60, 1-[3-(3-Furyl)phenyl]-4-methylpiperazine] | 31 ± 4 nM

Compound | Ki
CN1CCN(c2nccc(-c3cc4ccccc4n3C)n2)CC1 [Compound 38, 4-(1-Methylindol-2-yl)-2-(4-methylpiperazin-1-yl)pyrimidine] | 1530 ± 125 nM
CN(C)CCc1nc(N2CCN(C)CC2)nc2ccccc12 [Compound 50] | > 10000 nM
Cc1occc1-c1ccnc(N2CCN(C)CC2)n1 [Compound 23, 4-(2-Methyl-3-furyl)-2-(4-methylpiperazin-1-yl)pyrimidine] | 1920 ± 373 nM
CCc1cc(-c2ccco2)nc(N2CCN(C)CC2)n1 [Compound 27, 4-Ethyl-6-(2-furyl)-2-(4-methylpiperazin-1-yl)pyrimidine] | 380 ± 44 nM
CCCCc1cc(-c2ccco2)cc(N2CCN(C)CC2)c1 [Compound 65, 1-[3-n-Butyl-5-(2-furyl)phenyl]-4-methylpiperazine] | 743 ± 66 nM
Cc1cc(-c2ccnc(N3CCN(C)CC3)n2)co1 [Compound 24, 4-(5-Methyl-3-furyl)-2-(4-methylpiperazin-1-yl)pyrimidine] | 462 ± 54 nM
CCCN1CCN(c2nccc(-c3ccoc3)n2)CC1 [Compound 4, 4-(3-Furyl)-2-(4-propylpiperazin-1-yl)pyrimidine] | 5.3 ± 0.9 nM
CN1CCN(c2nccc(-c3cccc(O)c3)n2)CC1 [Compound 34, 4-(3-Hydroxyphenyl)-2-(4-methylpiperazin-1-yl)pyrimidine] | > 10000 nM
CCCCc1cc(-c2cccs2)cc(N2CCN(C)CC2)c1 [Compound 71, 1-[3-n-Butyl-5-(2-thienyl)phenyl]-4-methylpiperazine] | 734 ± 59 nM
CN1CCN(c2cc(-c3ccoc3)ccn2)CC1 [Compound 51, 4-(3-Furyl)-2-(4-methylpiperazin-1-yl)pyridine] | 17 ± 2 nM
CN1CCN(c2nccc(-c3ccco3)n2)CC1 [Compound 26, 4-(2-Furyl)-2-(4-methylpiperazin-1-yl)pyrimidine] | 1020 ± 96 nM
CN1CCN(c2cccc(-c3ccoc3)n2)CC1 [Compound 57, 6-(3-Furyl)-2-(4-methylpiperazin-1-yl)pyridine] | 8 nM and 11 nM
CN1CCN(c2nccc(-c3nccs3)n2)CC1 [Compound 40, 2-(4-Methylpiperazin-1-yl)-4-(thiazol-2-yl)pyrimidine] | > 10000 nM
O=C(c1ccccc1)N1CCN(c2nccc(-c3ccoc3)n2)CC1 [Compound 6, 2-(4-Benzoylpiperazin-1-yl)-4-(3-furyl)pyrimidine] | 1400 ± 173 nM
CN1CCN(c2nc(-c3ccoc3)c3ccccc3n2)CC1 [Compound 48, 4-(3-Furyl)-2-(methylpiperazin-1-yl)quinazoline] | 1910 ± 235 nM
CN1CCN(c2cccc(-c3cccs3)c2)CC1 [Compound 69, 1-Methyl-4-[3-(2-thienyl)phenyl]piperazine] | 542 ± 66 nM
CCCCc1nc(N2CCN(C)CC2)nc(-c2ccoc2)c1CCC [Compound 22, 4-n-Butyl-6-(3-furyl)-2-(4-methylpiperazino)-5-propylpyrimidine] | 1250 ± 116 nM
CN1CCN(c2nc(-c3ccoc3)cc(N(C)C)n2)CC1 [Compound 19, 4-Dimethylamino-6-(3-furyl)-2-(4-methylpiperazin-1-yl)pyrimidine] | > 10000 nM

Same assay, conditions: single compound concentration of 1 µM, HEK293 cells, read-out: inhibition in library screening

Compound | inhibition at 1 µM [%]
CN1CCN(c2nc(-c3ccoc3)cc(-c3ccoc3)n2)CC1 [Compound 18, 4,6-Bis(3-furyl)-2-(4-methylpiperazin-1-yl)pyrimidine] | > 60
Cc1cc(-c2ccoc2)nc(N2CCN(C)CC2)n1 [Compound 11, 4-(3-Furyl)-6-methyl-2-(4-methylpiperazin-1-yl)pyrimidine] | > 60
